Measured values published in patent US11452703B2, “Methods and compositions for reducing adipocyte numbers” (Peregrine Ophthalmic PTE LTD., priority 2020, dated 2022).

Assays:
[1] = test system: intraconal fat deposit adipocytes; assay: Short-term (7-day) adipocyte counts in intraconal fat after retrobulbar injection; type: in vivo; settings: rat, single retrobulbar injection, 25 μg/eye (DCA 2000 μg/eye), day 7 post-injection
Procedure: Free latanoprost, EggPC-latanoprost, and POPC-latanoprost were each introduced by retrobulbar injection into the orbit of the rat eye to ascertain its effect on intraconal fat deposits. As a positive control, deoxycholic acid (DCA; KYBELLA®) was also injected. DCA has been approved by the United States Food and Drug Administration for reducing fat cells in the chin.
Six rats were injected in a single eye for each of treatment. The contralateral eye of each animal was not injected, thus serving as a negative control.
The number of adipocytes present in the intraconal fat deposit at day 7 post-injection was counted by computer analysis of histopathology images and compared to the number of adipocytes in the contralateral un-injected eye. The results are shown in FIGS. 4A-4F and in Table 2 below.

LPL = assay: Quantitative real-time PCR of LPL mRNA in adipocytes; type: cell-based; settings: adipocytes 9 or 15 days post differentiation, vs vehicle control
Procedure: (§1) Adipose-derived mesenchymal stem cells, i.e., pre-adipocytes, were cultured and differentiated into adipocytes following established protocols. Briefly, adipose derived mesenchymal stem cells were obtained from ATCC (PCS500011™, Manassas, Va.) and cultured in Mesenchymal Stem Cell Basal Medium (ATCC® PCS500030™) with Growth Kit (ATCC® PCS500040™) at 37° C. in 5% CO2. To induce differentiation, ADMSC cultures were grown to 70% to 80% confluence and the medium replaced by adipogenic differentiation medium (StemPro® Adipogenesis Differentiation Kit; Gibco Life Technologies™, USA). The medium was changed twice weekly.
(§2) Gene expression in the treated and untreated adipocytes was examined by quantitative real-time PCR analysis. Total RNA from adipocytes was isolated using the RNAzol® RT reagent (Molecular Research Center, Inc., Cincinnati, Ohio, USA) and reverse-transcribed using the QuantiTect reverse transcription kit (Qiagen Inc., Chatsworth, Calif., USA) according to the supplier's instructions. Messenger RNA expression of adipogenesis-promoting genes C/EBPα, PPARγ, and LPL were determined by quantitative analysis of real-time PCR (RT-PCR) using FastStart Universal SYBR Green Master Mix (Roche Applied Science) in a LightCycler® 480 Real-Time PCR System (Roche Applied Science, Germany). […]

inguinal fat pad = assay: In vivo fat reduction by direct injection into inguinal fat pads; settings: mice, single injection 100 μL containing 100 μg latanoprost, 7 days post-injection
Procedure: The ability of liposome-encapsulated latanoprost to reduce fat deposits in vivo was tested by direct injection into inguinal fat pads of mice.
Each of three animals were injected into one inguinal fat pad with 100 μL of vehicle, 100 μL containing 100 μg latanoprost, 100 μL of EggPC-latanoprost containing 100 μg latanoprost, or 100 μL of POPC-latanoprost containing 100 μg latanoprost. Seven days later, the mice were sacrificed and the weights of both the injected inguinal fat pad and the contralateral un-injected fat pad were measured.

[2] = Intraocular pressure pre- and 3-week post retrobulbar injection; type: in vivo, Lewis rats (Rattus norvegicus); settings: rat, pre-injection vs 3 weeks post-injection
Source text: (§3) Twenty-four male Lewis rats (Rattus norvegicus) at 8-10 weeks of age were used in the study. Their weights at the start of the study ranged from 250-300 g.
(§4) Six rats were assigned to each of four groups at least one day prior to drug dosing using a selection designed to achieve similar group mean body weights. Animals in Groups A-D were weighed prior to injection and weekly thereafter.
(§5) Rats were anesthetized and a 30-gauge needle was used to inject the drugs into the retrobulbar space of the right orbit of each animal. The left orbit served as a contra-lateral control. All rats awoke from anesthesia without complication.
Intraocular pressure (TOP) measurements were taken pre- and 3-week post-injection of each eye of all 24 rats.

C/EBPα = assay: Quantitative real-time PCR of C/EBPα mRNA in adipocytes; type: cell-based; settings: adipocytes 9 or 15 days post differentiation, vs vehicle control
Procedure: as §1, §2

PPARγ = assay: Quantitative real-time PCR of PPARγ mRNA in adipocytes; type: cell-based; settings: adipocytes 9 or 15 days post differentiation, vs vehicle control
Procedure: as §1, §2

[3] = test system: intraconal orbital fat adipocytes; assay: 21-day retrobulbar injection into orbital fat, histology and image analysis; type: in vivo, Lewis rats (Rattus norvegicus); design: Area of Retrobulbar Fat complex, Percentage Increase treated vs naïve control eyes / Mean Density of Adipocytes, Percent Increase treated vs naïve control eyes / Adipocyte Cell Counts, Percentage Decrease treated vs naïve control eyes: concentration or dose not given beside the values; settings: rat; for Adipocyte Cell Counts, Treated Eyes Mean ± SEM / Area of Retrobulbar Fat complex, Treated Eyes Mean ± SEM / Mean Density of Adipocytes, Treated Eyes Mean ± SEM: 25 μg/eye (DCA 2000 μg/eye), day 21, n = 6; for Adipocyte Cell Counts, Percentage Decrease treated vs naïve control eyes / Area of Retrobulbar Fat complex, Percentage Increase treated vs naïve control eyes / Mean Density of Adipocytes, Percent Increase treated vs naïve control eyes: day 21
Source text: Free latanoprost, EggPC-latanoprost, POPC-latanoprost, and DCA were each introduced by retrobulbar injection into the orbit of the rat eye to ascertain its effect on intraconal fat deposits over a three-week period.
as §3, §4, §5
On Day 21, 3 weeks after injection, rats were euthanized by cardiac perfusion with 4% paraformaldehyde. After perfusion, each rat was decapitated and the head was placed in a 10% formalin solution for 2 days. Each orbit was carefully exenterated subperiosteally with a scalpel and placed back in 10% formalin solution for 1 day (6 orbits from 3 animals per group) and the remaining orbits were placed back in a 10% formalin solution for 2 weeks. Exenterated orbits were embedded in paraffin and cut into 5 μm sections. Sections centered around the intraconal fat and optic nerve were stained with hematoxylin-eosin for histologic examination by a trained ocular pathologist and a second observer in a blinded fashion.
Sections were examined histologically for optic nerve injury, atrophy of orbital fat, adipocyte density, and cytotoxicity evidenced by, e.g., adipocytolysis, blood vessel injury and repair, neutrophilic inflammation, lysis of locally present neutrophils, hemorrhage, lipid lake formation, and neovascularization.
The intraconal fat of the orbital sections were examined under light microscopy and images scanned for further analysis. The areas of intraconal orbital fat were cropped and the adipocytes counted using ImageJ software (Rasband W.S., US National Institutes of Health, Bethesda, Md.) to determine adipocyte density using a previously described method. See Park et al., 2011, Jpn. J. Ophthalmol. 55:22-27. The density of adipocytes in the intraconal orbital fat area was calculated and compared between groups via a 2-tailed Student t test.
Adipocyte size heterogeneity was analyzed in the cropped images of the intraconal fat light using a maximally stable extremal regions-based segmentation algorithm implemented in MATLAB (Mathworks, Natick, Mass.). A maximally stable extremal region algorithm entitled VL_FEAT was used to find extremal regions with parameters of delta=1, maximum variation=0.2, minimum diversity=0.5. Maximally stable extremal region-determined regions with sizes less than 10 pixels or eccentricity larger than 0.9 was discarded as false positives. The mean segmented adipocyte size for each image was calculated and the groups were compared using Student t test.

| Intraocular pressure (IOP) in injected eyes [2] | Compound | Adipocyte cell count reduction (percent reduction in total adipocyte number in intraconal fat deposit vs contralateral un-injected eye) [1] | mRNA expression of adipogenesis-promoting gene LPL (LPL) | weight reduction of injected inguinal fat pad as compared to un-injected contralateral fat pad (inguinal fat pad) | mRNA expression of adipogenesis-promoting gene C/EBPα (C/EBPα) | mRNA expression of adipogenesis-promoting gene PPARγ (PPARγ) | heterogeneity among adipocytes in the intraconal space as compared to naïve contra-lateral control orbits ([3]; orbital injection, day 21, computer-aided morphological analysis) | Adipocyte Cell Counts, Treated Eyes Mean ± SEM ([3]; retrobulbar injection) | Area of Retrobulbar Fat complex, Treated Eyes Mean ± SEM ([3]; retrobulbar injection) | Mean Density of Adipocytes, Treated Eyes Mean ± SEM ([3]; retrobulbar injection) | Adipocyte Cell Counts, Percentage Decrease treated vs naïve control eyes ([3]; retrobulbar injection) | Area of Retrobulbar Fat complex, Percentage Increase treated vs naïve control eyes ([3]; retrobulbar injection) | Mean Density of Adipocytes, Percent Increase treated vs naïve control eyes ([3]; retrobulbar injection) | change in the area of the retrobulbar fat complex after injection (significance) ([3]; retrobulbar injection, day 21, quantitative image analysis) |
| --- | --- | --- | --- | --- | --- | --- | --- | --- | --- | --- | --- | --- | --- | --- |
| remained stable | CC(C)OC(=O)CCC/C=C\C[C@@H]1[C@@H](CC[C@@H](O)CCc2ccccc2)[C@H](O)C[C@@H]1O [latanoprost] | 56.52% | suppressed expression | did not result in any weight reduction | suppressed expression | suppressed expression | more heterogeneity | 108 ± 52 | 0.131 ± 0.089 mm^2 | 8574.68 ± 1456.73 cells/mm^3 | 61% | 283% | 58% | significant increases |
| significant increase | C[C@H](CCC(=O)O)[C@H]1CC[C@H]2[C@@H]3CC[C@@H]4C[C@H](O)CC[C@]4(C)[C@H]3C[C@H](O)[C@]12C [DCA, deoxycholic acid] | 39.04% |  |  |  |  |  | 179 ± 47 | 0.167 ± 0.093 mm^2 | 7606.21 ± 754.39 cells/mm^3 | 37% | 208% | 35% |  |
